From paper PMC8976910, “Novel oxadiazole derivatives as potent inhibitors of α-amylase and α-glucosidase enzymes: Synthesis, in vitro evaluation, and molecular docking studies” (Iranian Journal of Basic Medical Sciences, 2021)
Converted amounts (≈) assume the structure as drawn.

Tests used:
[1] = target: T1, porcine pancreatic amylase (Sus scrofa, UniProt P00690); assay: In vitro alpha-amylase inhibitory activity (starch/DNS, 540 nm); type: biochemical; details: for % Inhibition (alpha-amylase): concentration not stated (test compounds 1–100 μg/ml); for IC50: porcine pancreatic amylase, pH 6.8, 25 °C, test compounds 1–100 μg/ml, ± SEM, read-out: IC50 µg/ml ± SEM (alpha-amylase inhibition) (converted)
T1 sequence (P00690 16-511): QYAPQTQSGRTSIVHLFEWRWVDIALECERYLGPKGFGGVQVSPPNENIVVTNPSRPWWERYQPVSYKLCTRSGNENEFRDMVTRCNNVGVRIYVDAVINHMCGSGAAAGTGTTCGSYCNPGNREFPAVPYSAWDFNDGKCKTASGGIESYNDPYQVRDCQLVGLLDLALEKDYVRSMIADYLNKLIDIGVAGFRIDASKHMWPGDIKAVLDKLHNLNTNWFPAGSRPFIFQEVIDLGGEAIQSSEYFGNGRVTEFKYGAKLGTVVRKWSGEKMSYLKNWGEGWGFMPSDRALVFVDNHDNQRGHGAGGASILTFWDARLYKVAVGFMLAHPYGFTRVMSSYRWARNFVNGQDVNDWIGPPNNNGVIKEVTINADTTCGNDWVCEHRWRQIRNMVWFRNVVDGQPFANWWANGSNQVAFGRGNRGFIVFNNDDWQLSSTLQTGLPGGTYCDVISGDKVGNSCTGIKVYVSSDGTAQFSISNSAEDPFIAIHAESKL
Procedure: To this reaction mixture, 1% starch solution was added (500 μl in 0.2 mM phosphate buffer, pH 6.8) and incubated for an additional 10 min. 1 ml of DNS (di-nitro-salicylic-acid) color reagent was added to arrest the reaction. The reaction mixture was boiled for 10 min and then brought to ambient temperature. The absorbance of the resulting mixture was measured at 540 nm and the inhibitory activity was calculated using the following formula.
% Inhibition =(Astandard -Asample)/Astandard× 100
The IC50 was calculated using non-linear regression plot of % inhibition versus concentrations with the help of GraphPad Prism, version 6.0.

[2] = test system: α-glucosidase; assay: In vitro alpha-glucosidase inhibitory activity (p-NPG, 400 nm); type: biochemical; details: for % Inhibition (alpha-glucosidase): concentration not stated (test compounds 1-100 μg/ml); for IC50 µg/ml ± SEM (alpha-glucosidase inhibition): p-NPG substrate, 37 °C, test compounds 1-100 μg/ml
Procedure: The α-glucosidase inhibitory activity was determined according to a previously reported method with slight modifications([19]). […] A 500 μl solution was prepared by adding 10 μl of test compounds (1-100 μg/ml) and 490 μl of phosphate buffer (pH 6.9). 250 μl of 5mM p-nitrophenyl α-d-glucopyranoside (p-NPG) were added to this reaction mixture and incubated for 10 min at 37 °C. […] The α-glucosidase inhibitory activity was calculated as a measure of p-nitrophenol released from p-NPG. […] The percentage inhibition was calculated using the following formula; % Inhibition = (^Astandard^- Asample) / ^Astandard × 100.

[3] = test system: 3T3 (mouse fibroblast) cells; assay: MTT assay for cytotoxicity analysis; type: cell-based; details: for cytotoxic effects against 3T3 (mouse fibroblast) cells, in words: MTT, 1.875-30 µM; for inhibition at 1.875 µM / inhibition at 3.75 µM / inhibition at 7.5 µM / inhibition at 15 µM / inhibition at 30 µM: Mus musculus, NIH3T3, 48 h, 3T3 cells, 48 hr, read-out: % Growth Inhibition
Procedure: Cytotoxic activity of compounds was evaluated in 96-well flat-bottomed microplates by using the standard MTT (3-[4, 5-dimethylthiazole-2-yl]-2, 5-diphenyl-tetrazolium bromide) colorimetric assay ([34]). For this purpose, 3T3 (mouse fibroblast, ATCC # CRL-1658, Lot # 59049195) cells were cultured in Dulbecco’s Modified Eagle Medium, supplemented with 5% fetal bovine serum (FBS), 100 IU/ml penicillin, and 100 µg/ml streptomycin in 75 cm^2 flasks, and kept in a 5% CO2 incubator at 37 °C. Exponentially growing cells were harvested, counted with a hemocytometer, and diluted with a particular medium. Cell culture with concentration of 5x10^4 cells/ml was prepared and introduced (100 µl/well) into 96-well plates. After overnight incubation, the medium was removed and 200 µl of fresh medium was added with various oxadiazole concentrations (30 µM, 15 µM, 7.5 µM, 3.75 µM, and 1.875 µM). After 48 hr, 200 µl MTT (0.5 mg/ml) was added to each well and incubated further for 4 hr. Subsequently, 100 µl of DMSO was added to each well. The extent of MTT reduction to formazan within cells was calculated by measuring the absorbance at 540 nm, using a microplate reader (Spectra Max Plus, Molecular Devices, CA, USA). The cytotoxicity was recorded as concentration causing 50% growth inhibition (IC50) for 3T3 cells. The percent inhibition was calculated by using the following formula;
% Inhibition=100-((mean of O.D of test compound-mean of O.D of negative control)/ (mean of O.D of positive control - mean of O.D of negative control) *100).
The results (% inhibition) were processed by using SoftMax Pro software (Molecular Device, USA).

SMILES: OCCSc1nnc(-c2ccccn2)o1 [4a(a), 2-{[5-(pyridin-2-yl)-1,3,4-oxadiazol-2-yl]sulfanyl} ethan-1-ol]
- % Inhibition (alpha-amylase) [1]: 9.42%
- IC50 [1]: 1300 µM
- % Inhibition (alpha-glucosidase) [2]: 97.2%
- IC50 µg/ml ± SEM (alpha-glucosidase inhibition) [2]: 15.45 ± 0.20 µg/mL (≈ 69.2 µM)

SMILES: OCCSc1nnc(-c2cccnc2)o1 [4a(b), 2-{[5-(pyridin-3-yl)-1,3,4-oxadiazol-2-yl]sulfanyl} ethan-1-ol]
- % Inhibition (alpha-amylase) [1]: 26%
- IC50 [1]: 831 µM
- IC50 µg/ml ± SEM (alpha-glucosidase inhibition) [2]: No effect

SMILES: OCCSc1nnc(-c2ccncc2)o1 [4a(c), 2-{[5-(pyridin-4-yl)-1,3,4-oxadiazol-2-yl]sulfanyl} ethan-1-ol]
- % Inhibition (alpha-amylase) [1]: 3.21%
- IC50 [1]: 1770 µM
- % Inhibition (alpha-glucosidase) [2]: 16.3%
- IC50 µg/ml ± SEM (alpha-glucosidase inhibition) [2]: 299.11 ± 0.31 µg/mL (≈ 1340 µM)
- melting point: 180 °C

SMILES: OCCSc1nnc(-c2ccccc2O)o1 [Compound 5a, 2-{5-[(2-hydroxyethyl)sulfanyl]-1,3,4-oxadiazol-2-yl} phenol]
- % Inhibition (alpha-amylase) [1]: 56.41%
- IC50 [1]: 252 µM
- % Inhibition (alpha-glucosidase) [2]: 98.14%
- IC50 µg/ml ± SEM (alpha-glucosidase inhibition) [2]: 12.27 ± 0.41 µg/mL (≈ 51.5 µM)
- cytotoxic effects against 3T3 (mouse fibroblast) cells, in words [3]: negligible cytotoxic effects
- inhibition at 1.875 µM [3]: 3%
- inhibition at 3.75 µM [3]: 5%
- inhibition at 7.5 µM [3]: 12%
- inhibition at 15 µM [3]: 16%
- inhibition at 30 µM [3]: 26.2%
- melting point: 165 to 170 °C

SMILES: OCCSc1nnc(-c2ccc(O)cc2)o1 [Compound 5b, 4-{5-[(2-hydroxyethyl)sulfanyl]-1,3,4-oxadiazol-2-yl} phenol]
- % Inhibition (alpha-amylase) [1]: 50.11%
- IC50 [1]: 272 µM
- % Inhibition (alpha-glucosidase) [2]: 41.8%
- IC50 µg/ml ± SEM (alpha-glucosidase inhibition) [2]: 62.01 ± 0.92 µg/mL (≈ 260 µM)

SMILES: OCCSc1nnc(-c2ccccc2Cl)o1 [Compound 5c, 2-{[5-(2-chlorophenyl)-1,3,4-oxadiazol-2-yl]sulfanyl} ethan-1-ol]
- % Inhibition (alpha-amylase) [1]: 49.41%
- IC50 [1]: 267 µM
- % Inhibition (alpha-glucosidase) [2]: 40.04%
- IC50 µg/ml ± SEM (alpha-glucosidase inhibition) [2]: 69.04 ± 0.27 µg/mL (≈ 269 µM)
- melting point: 165 °C

SMILES: OCCSc1nnc(-c2cccc(Br)c2)o1 [Compound 5d, 2-{[5-(3-bromophenyl)-1,3,4-oxadiazol-2-yl]sulfanyl} ethan-1-ol]
- % Inhibition (alpha-amylase) [1]: 43.6%
- IC50 [1]: 298 µM
- % Inhibition (alpha-glucosidase) [2]: 39.7%
- IC50 µg/ml ± SEM (alpha-glucosidase inhibition) [2]: 73.61 ± 0.02 µg/mL (≈ 244 µM)
- melting point: 186 to 190 °C

SMILES: OCCSc1nnc(-c2cccc(I)c2)o1 [Compound 5e, 2-{[5-(3-iodophenyl)-1,3,4-oxadiazol-2-yl]sulfanyl} ethan-1-ol]
- % Inhibition (alpha-amylase) [1]: 40.2%
- IC50 [1]: 279 µM
- % Inhibition (alpha-glucosidase) [2]: 40.2%
- IC50 µg/ml ± SEM (alpha-glucosidase inhibition) [2]: 68.02 ± 0.43 µg/mL (≈ 195 µM)
- melting point: 170 °C

SMILES: OCCSc1nnc(-c2cc(O)c(O)c(O)c2)o1 [Compound 5f, 5-{5-[(2-hydroxyethyl)sulfanyl]-1,3,4-oxadiazol-2-yl} benzene-1,2,3-triol]
- % Inhibition (alpha-amylase) [1]: 19.04%
- IC50 [1]: 772 µM
- % Inhibition (alpha-glucosidase) [2]: 9.04%
- IC50 µg/ml ± SEM (alpha-glucosidase inhibition) [2]: 273.06 ± 0.04 µg/mL (≈ 1010 µM)
- melting point: 265 to 270 °C

SMILES: OCCSc1nnc(-c2ccccc2)o1 [Compound 5g, 2-[(5-phenyl-1,3,4-oxadiazol-2-yl)sulfanyl] ethan-1-ol]
- % Inhibition (alpha-amylase) [1]: 92.16%
- IC50 [1]: 58.9 µM
- % Inhibition (alpha-glucosidase) [2]: 36.16%
- IC50 µg/ml ± SEM (alpha-glucosidase inhibition) [2]: 80.8 ± 0.52 µg/mL (≈ 364 µM)
- cytotoxic effects against 3T3 (mouse fibroblast) cells, in words [3]: negligible cytotoxic effects
- inhibition at 1.875 µM [3]: ~1.5%
- inhibition at 3.75 µM [3]: 3%
- inhibition at 7.5 µM [3]: 8%
- inhibition at 15 µM [3]: 10%
- inhibition at 30 µM [3]: 19.6%
- melting point: 207 to 210 °C

SMILES: OCCN1C[C@H](O)[C@@H](O)[C@H](O)[C@H]1CO [Miglitol, reference compound]
- % Inhibition (alpha-glucosidase) [2]: 98.9%
- IC50 µg/ml ± SEM (alpha-glucosidase inhibition) [2]: 11.47 ± 0.02 µg/mL (≈ 55.4 µM)
